According to PMC4594923, “Food Polyphenols Fail to Cause a Biologically Relevant Reduction of COX-2 Activity” (PLoS ONE, 2015):
Marks after values point to notes of the source that are not given here.

How the values were obtained:
[1] = system: arachidonic acid (AA) cascade; test: liver tissue oxylipin/PG levels in LPS induced sepsis in mice; type: in vivo, C57BL/6N mice; settings: liver tissue 24 h after LPS treatment;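 further: male C57BL/6N mice pretreated i.p. with polyphenols at 100 mg/kg bw or vehicle before LPS, liver oxylipins measured by LC-MS after solid-phase extraction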
Source text: (§1) Twelve week old male C57BL/6N mice (Charles River, Sulzfeld, Germany) were used for all experiments. C57BL/6 male mice (H2^b, 11–13 weeks of age) were obtained from Charles River (Sulzfeld, Germany). Animals were cared for in accordance with the institution’s guidelines for experimental animals and with the guidelines of the American Physiological Society. […] Mice were monitored closely and if they appeared compromised (i.e. inactivity, no intake of food or water) after compound or LPS injection the experiment was terminated.
(§2) Oxylipin levels were analyzed in plasma and tissues by LC-MS following SPE extraction of 200 μl plasma or tissue homogenate (50 mg) on Chromabond C18 ec cartridges (Machery-Nagel, Düren, Germany) [19].
(§3) GraphPad Prism 5.0 (GraphPad Software, San Diego, USA) was used for data analysis, the fitting of dose response curves and calculation of the IC50 values. Statistical differences were determined by Dunnetts test (LPS vs. other groups).

[2] = system: arachidonic acid (AA) cascade; test: plasma oxylipin/PG levels in LPS induced sepsis in mice; type: in vivo, C57BL/6N mice;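 further: male C57BL/6N mice given LPS, plasma oxylipins quantified by LC-MS after solid-phase extraction, pretreatment or vehicle given intraperitoneally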
Source text: as §1, §2, §3

[3] = mice, compound i. p. 100 mg/kg bw 2 h before LPS (10 mg/kg bw i. p.), 24 h after LPS, vs. LPS group
[4] = plasma 24 h after LPS treatment, LPS +, mean

Oc1ccc(/C=C/c2cc(O)cc3c2[C@@H](c2cc(O)cc(O)c2)[C@H](c2ccc(O)cc2)O3)cc1 [ε-Viniferin, ε-viniferin]
4,5-DiHDPE concentration ([1]; mean): 20 nM
4-HDHA concentration ([1]; mean): 6.8 nM
5(6)-EpETrE concentration ([1]; mean): 45 nM
5,6-DiHETE concentration ([1]; mean): < 0.30 nM
5,6-DiHETrE concentration ([1]; mean): 1.9 nM
5-HEPE concentration ([1]; mean): 1.2 nM
5-HETE concentration ([1]; mean): 1.2 nM
5-iPF2α concentration ([1]; mean): 2.3^‡ nM
5-oxo-ETE concentration ([1]; mean): 14 nM
6-keto-PGF1α concentration ([1]; mean): 29 nM
7,8-DiHDPE concentration ([1]; mean): 1.9 nM
7-HDHA concentration ([1]; mean): 1.7 nM
8(9)-EpETE concentration ([1]; mean): 1.5 nM
8(9)-EpETrE concentration ([1]; mean): 9.8 nM
8,9-DiHETE concentration ([1]; mean): 1.2 nM
8,9-DiHETrE concentration ([1]; mean): 4.4 nM
8,15-DiHETE concentration ([1]; mean): < 0.80 nM
8-HDHA concentration ([1]; mean): 9.0 nM
8-HEPE concentration ([1]; mean): < 0.60 nM
8-HETE concentration ([1]; mean): 4.2 nM
8-iPF2α concentration ([1]; mean): < 0.10 nM
9(10)-EpODE concentration ([1]; mean): 9.2 nM
9(10)-EpOME concentration ([1]; mean): 84 nM
9(10)-Epoxystearic acid concentration ([1]; mean): 66 nM
9,10,13-TriHOME concentration ([1]; mean): 16 nM
9,10-DiHODE concentration ([1]; mean): 3.9 nM
9,10-DiHOME concentration ([1]; mean): 43^* nM
9,10-Dihydroxystearic acid concentration ([1]; mean): 170 nM
9,12,13-TriHOME concentration ([1]; mean): 110 nM
9-HETE concentration ([1]; mean): 2.9 nM
9-HODE concentration ([1]; mean): 250 nM
9-HOTrE concentration ([1]; mean): 5.0 nM
9-oxo-ODE concentration ([1]; mean): 53 nM
10(11)-EpDPE concentration ([1]; mean): 15 nM
10,11-DiHDPE concentration ([1]; mean): 2.2^† nM
10-HDHA concentration ([1]; mean): 2.2 nM
11(12)-EpETE concentration ([1]; mean): 2.0 nM
11(12)-EpETrE concentration ([1]; mean): 27 nM
11,12-DiHETE concentration ([1]; mean): 1.0^* nM
11,12-DiHETrE concentration ([1]; mean): 5.5^† nM
11-HDHA concentration ([1]; mean): 2.8 nM
11-HETE concentration ([1]; mean): 7.0 nM
12(13)-EpODE concentration ([1]; mean): 3.9 nM
12(13)-EpOME concentration ([1]; mean): 72 nM
12,13-DiHODE concentration ([1]; mean): < 2.0 nM
12,13-DiHOME concentration ([1]; mean): 45^‡ nM
12-HEPE concentration ([1]; mean): 6.8 nM
12-HETE concentration ([1]; mean): 32 nM
13(14)-EpDPE concentration ([1]; mean): 12 nM
13,14-DiHDPE concentration ([1]; mean): 1.6^‡ nM
13,14-dihydro-15-keto-PGE1 concentration ([1]; mean): 0.62 nM
13,14-dihydro-15-keto-PGF2α concentration ([1]; mean): 7.0 nM
13-HDHA concentration ([1]; mean): 3.8 nM
13-HODE concentration ([1]; mean): 230 nM
13-HOTrE concentration ([1]; mean): 8.5 nM
13-oxo-ODE concentration ([1]; mean): 9.4 nM
14(15)-EpETE concentration ([1]; mean): 1.8 nM
14(15)-EpETrE concentration ([1]; mean): 21 nM
14,15-DiHETE concentration ([1]; mean): 2.1^‡ nM
14,15-DiHETrE concentration ([1]; mean): 12^‡ nM
14-HDHA concentration ([1]; mean): 18 nM
15(16)-EpODE concentration ([1]; mean): 12 nM
15(S)-HETrE concentration ([1]; mean): 5.2 nM
15,16-DiHODE concentration ([1]; mean): 17^† nM
15-HEPE concentration ([1]; mean): 1.7 nM
15-HETE concentration ([1]; mean): 14 nM
15-oxo-ETE concentration ([1]; mean): 2.8 nM
16(17)-EpDPE concentration ([1]; mean): 11 nM
16,17-DiHDPE concentration ([1]; mean): 3.0^‡ nM
16-HDHA concentration ([1]; mean): 2.4 nM
17(18)-EpETE concentration ([1]; mean): 3.2 nM
17,18-DiHETE concentration ([1]; mean): 5.6^‡ nM
17-HDHA concentration ([1]; mean): 9.0 nM
18-HEPE concentration ([1]; mean): 1.6 nM
19(20)-EpDPE concentration ([1]; mean): 17 nM
19,20-DiHDPE concentration ([1]; mean): 17^‡ nM
20-HDHA concentration ([1]; mean): 9.1^* nM
20-HEPE concentration ([1]; mean): 4.1^‡ nM
20-HETE concentration ([1]; mean): < 2.6 nM
EKODE concentration ([1]; mean): 34 nM
PGD1 concentration ([1]; mean): 0.91 nM
PGD2 concentration ([1]; mean): 13 nM
PGE1 concentration ([1]; mean): 0.88 nM
PGE2 concentration ([1]; mean): 4.2 nM
PGF1α concentration ([1]; mean): 2.5 nM
TXB2 concentration ([1]; mean): 8.4 nM
TxB3 concentration ([1]; mean): < 0.05 nM
dihomo-PGF2α concentration ([1]; mean): 1.0 nM
PGF2α concentration ([1]; mean (first listing, r6)): 12 nM
PGF2α concentration ([1]; mean (second listing, r9)): 12 nM
plasma 8-iPF2α level (non-enzymatically formed autoxidation marker) [2, 3]: high levels
plasma 13,14-dihydro-15-keto-PGE1 level [2, 3]: high levels
plasma 13,14-dihydro-15-keto-PGF2α level [2, 3]: high levels
plasma PGF2α level [2, 3]: high levels
1a,1b-dihomo-PGF2α concentration in plasma [2, 4]: 0.42^† nM
4,5-DiHDPE concentration in plasma [2, 4]: 23^‡ nM
4-HDHA concentration in plasma [2, 4]: 1.7 nM
5(6)-EpETrE concentration in plasma [2, 4]: 11 nM
5,6-DiHETrE concentration in plasma [2, 4]: 1.3^‡ nM
5-HEPE concentration in plasma [2, 4]: 0.25^* nM
5-HETE concentration in plasma [2, 4]: 2.8 nM
5-iPF2α concentration in plasma [2, 4]: 0.91^‡ nM
5-oxo-ETE concentration in plasma [2, 4]: 4.7 nM
6-keto-PGF1α concentration in plasma [2, 4]: 2.8 nM
7,8-DiHDPE concentration in plasma [2, 4]: 1.1 nM
7-HDHA concentration in plasma [2, 4]: 0.55 nM
8(9)-EpETrE concentration in plasma [2, 4]: 2.5 nM
8,9-DiHETrE concentration in plasma [2, 4]: 2.5 nM
8-HDHA concentration in plasma [2, 4]: 3.8 nM
8-HEPE concentration in plasma [2, 4]: 1.2^† nM
8-HETE concentration in plasma [2, 4]: 12^* nM
8-iPF2a concentration in plasma [2, 4]: 0.30^* nM
9(10)-EpODE concentration in plasma [2, 4]: 6.5 nM
9(10)-EpOME concentration in plasma [2, 4]: 61 nM
9(10)-Epoxystearic acid concentration in plasma [2, 4]: 37 nM
9,10,13-TriHOME concentration in plasma [2, 4]: 2.2 nM
9,10-DiHODE concentration in plasma [2, 4]: 4.5 nM
9,10-DiHOME concentration in plasma [2, 4]: 30 nM
9,10-Dihydroxystearic acid concentration in plasma [2, 4]: 10 nM
9,12,13-TriHOME concentration in plasma [2, 4]: 17 nM
9-HODE concentration in plasma [2, 4]: 210 nM
9-HOTrE concentration in plasma [2, 4]: 12 nM
9-oxo-ODE concentration in plasma [2, 4]: 38 nM
10(11)-EpDPE concentration in plasma [2, 4]: 3.9 nM
10,11-DiHDPE concentration in plasma [2, 4]: 0.62^* nM
10-HDHA concentration in plasma [2, 4]: 27^† nM
11(12)-EpETrE concentration in plasma [2, 4]: 2.6 nM
11,12-DiHETE concentration in plasma [2, 4]: 0.38^‡ nM
11,12-DiHETrE concentration in plasma [2, 4]: 2.0 nM
11-HDHA concentration in plasma [2, 4]: 0.91 nM
11-HETE concentration in plasma [2, 4]: 3.8^* nM
12(13)-EpODE concentration in plasma [2, 4]: 3.3 nM
12(13)-EpOME concentration in plasma [2, 4]: 48 nM
12,13-DiHODE concentration in plasma [2, 4]: 2.8 nM
12,13-DiHOME concentration in plasma [2, 4]: 110^* nM
12-HEPE concentration in plasma [2, 4]: 239^† nM
12-HETE concentration in plasma [2, 4]: 1700^† nM
13(14)-EpDPE concentration in plasma [2, 4]: 2.9 nM
13,14-DiHDPE concentration in plasma [2, 4]: 0.55^* nM
13,14-dihydro-15-keto-PGE1 concentration in plasma [2, 4]: 0.34^† nM
13,14dihydro-15-keto-PGF2α concentration in plasma [2, 4]: 2.1^‡ nM
13-HDHA concentration in plasma [2, 4]: 3.9^* nM
13-HODE concentration in plasma [2, 4]: 540 nM
13-HOTrE concentration in plasma [2, 4]: 61 nM
13-oxo-ODE concentration in plasma [2, 4]: 8.3 nM
14(15)-EpETE concentration in plasma [2, 4]: 0.18^* nM
14(15)-EpETrE concentration in plasma [2, 4]: 2.4 nM
14,15-DiHETE concentration in plasma [2, 4]: 0.36 nM
14,15-DiHETrE concentration in plasma [2, 4]: 2.5 nM
14-HDHA concentration in plasma [2, 4]: 800^† nM
15(16)-EpODE concentration in plasma [2, 4]: 2.9 nM
15(S)-HETrE concentration in plasma [2, 4]: 5.7^‡ nM
15,16-DiHODE concentration in plasma [2, 4]: 53 nM
15-HEPE concentration in plasma [2, 4]: 1.5^‡ nM
15-HETE concentration in plasma [2, 4]: 7.9^† nM
15-oxo-ETE concentration in plasma [2, 4]: 0.34 nM
16(17)-EpDPE concentration in plasma [2, 4]: 2.8 nM
16,17-DiHDPE concentration in plasma [2, 4]: 1.1^† nM
16-HDHA concentration in plasma [2, 4]: 1.1 nM
17(18)-EpETE concentration in plasma [2, 4]: 1.1 nM
17,18-DiHETE concentration in plasma [2, 4]: 1.8 nM
17-HDHA concentration in plasma [2, 4]: 39^† nM
18-HEPE concentration in plasma [2, 4]: 0.81 nM
19(20)-EpDPE concentration in plasma [2, 4]: 13 nM
19,20-DiHDPE concentration in plasma [2, 4]: 14 nM
20-HDHA concentration in plasma [2, 4]: 3.6 nM
20-HEPE concentration in plasma [2, 4]: 5.7^† nM
20-HETE concentration in plasma [2, 4]: 2.7^‡ nM
EKODE concentration in plasma [2, 4]: 16 nM
PGD2 concentration in plasma [2, 4]: 0.90 nM
PGE2 concentration in plasma [2, 4]: 1.6 nM
PGF1α concentration in plasma [2, 4]: 0.25^‡ nM
PGF2α concentration in plasma [2, 4]: 0.77^‡ nM
TXB2 concentration in plasma [2, 4]: 4.2 nM
